In patent US9643980B2, “Benzoxazepin oxazolidinone compounds and methods of use” (Genentech, Inc., priority 2015, dated 2017):
Read-outs that look alike come from different tables or passages of the source.

Key:
[1] = test system: P-PRAS40 SW48(parental); assay: Inhibition of P-PRAS40 in SW48 isogenic cells, PI3Kα wild-type (parental); details: Homo sapiens, SW48, 24 h
[2] = test system: P-PRAS40 SW48(H1047R); assay: Inhibition of P-PRAS40 in SW48 isogenic cells, PI3Kα mutant H1047R; assay type: cell-based; details: for EC50: Homo sapiens
Description: (§1) All statistics were performed using KaleidaGraph Software (version 4.1.3). A Student t-Test was performed using unpaired data with equal variance to compare activity against mutant cells and wild-type cells. P<0.05 is considered to be significant.
(§2) The following assays are intended for determining the cellular potency and mutant selectivity of small molecule PI3Kα inhibitors. […] Mutant selectivity of PI3Kα inhibitors is determined by EC50 potency ratios in the WT vs. E545K cell lines and WT vs. H1047R cell lines.
(§3) The three cell lines (WT, E545K, and H1047R) are plated and assayed in parallel. The following day, test compounds are serially diluted in dimethyl sulfoxide (DMSO) and added to cells (final DMSO concentration 0.5%). […] Cell lysates are added to assay plates pre-coated with antibodies against phosphorylated PRAS40. Phosphorylated PRAS40 in samples are allowed to bind to the capture antibodies overnight at 4° C. The detection antibody (anti-total PRAS40, labeled with an electrochemiluminescent SULFO-TAG) is added to the bound lysate and incubated for 1 hour at room temperature. The MSD Read Buffer is added such that when a voltage is applied to the plate electrodes, the labels bound to the electrode surface emit light. The MSD Sector Instrument measures the intensity of the light, and quantitatively measures the amount of phosphor-PRAS40 in the sample. Percent inhibition of PRAS40 phosphorylation by varying concentrations of test compounds is calculated relative to untreated controls. EC50 values are calculated using the 4 parameter logistic nonlinear regression dose-response model.

[3] = test system: P-PRAS40 SW48(E545K); assay: Inhibition of P-PRAS40 in SW48 isogenic cells, PI3Kα mutant E545K; assay type: cell-based; details: for EC50: Homo sapiens
Description: as §1, §2, §3

[4] = target: PI3Kδ (Homo sapiens, UniProt O00329); assay: PI3K binding assay (lipid kinase reaction, ADP-Glo), PI3K delta; assay type: biochemical
Chain of PI3Kδ (O00329 whole entry, canonical isoform): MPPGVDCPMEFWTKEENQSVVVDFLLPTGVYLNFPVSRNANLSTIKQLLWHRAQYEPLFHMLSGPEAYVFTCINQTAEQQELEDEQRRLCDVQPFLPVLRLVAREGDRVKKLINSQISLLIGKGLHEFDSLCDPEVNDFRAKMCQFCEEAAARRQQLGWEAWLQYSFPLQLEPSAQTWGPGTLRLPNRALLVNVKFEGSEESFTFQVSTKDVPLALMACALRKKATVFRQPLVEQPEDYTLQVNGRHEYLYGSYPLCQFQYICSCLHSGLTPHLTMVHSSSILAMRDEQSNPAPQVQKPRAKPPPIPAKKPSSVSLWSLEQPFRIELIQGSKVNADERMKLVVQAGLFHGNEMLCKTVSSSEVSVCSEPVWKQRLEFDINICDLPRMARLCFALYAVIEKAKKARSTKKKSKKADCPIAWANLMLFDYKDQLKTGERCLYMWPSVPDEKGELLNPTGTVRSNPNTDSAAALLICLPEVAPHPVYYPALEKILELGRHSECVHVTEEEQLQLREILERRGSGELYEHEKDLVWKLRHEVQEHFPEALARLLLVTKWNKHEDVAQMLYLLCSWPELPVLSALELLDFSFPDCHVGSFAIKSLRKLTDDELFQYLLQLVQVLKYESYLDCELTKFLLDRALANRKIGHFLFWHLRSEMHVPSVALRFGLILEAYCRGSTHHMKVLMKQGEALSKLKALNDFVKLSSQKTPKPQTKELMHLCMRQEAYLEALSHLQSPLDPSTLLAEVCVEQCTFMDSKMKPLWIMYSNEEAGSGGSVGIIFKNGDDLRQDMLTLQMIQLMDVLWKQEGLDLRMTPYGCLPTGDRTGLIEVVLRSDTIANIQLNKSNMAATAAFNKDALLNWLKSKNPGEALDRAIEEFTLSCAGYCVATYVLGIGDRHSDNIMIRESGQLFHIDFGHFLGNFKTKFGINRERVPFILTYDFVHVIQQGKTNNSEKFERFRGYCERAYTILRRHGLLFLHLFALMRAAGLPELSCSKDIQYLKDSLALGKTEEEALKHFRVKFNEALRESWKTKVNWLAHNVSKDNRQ
Chain of PI3Kδ (P27986 whole entry partner, canonical isoform): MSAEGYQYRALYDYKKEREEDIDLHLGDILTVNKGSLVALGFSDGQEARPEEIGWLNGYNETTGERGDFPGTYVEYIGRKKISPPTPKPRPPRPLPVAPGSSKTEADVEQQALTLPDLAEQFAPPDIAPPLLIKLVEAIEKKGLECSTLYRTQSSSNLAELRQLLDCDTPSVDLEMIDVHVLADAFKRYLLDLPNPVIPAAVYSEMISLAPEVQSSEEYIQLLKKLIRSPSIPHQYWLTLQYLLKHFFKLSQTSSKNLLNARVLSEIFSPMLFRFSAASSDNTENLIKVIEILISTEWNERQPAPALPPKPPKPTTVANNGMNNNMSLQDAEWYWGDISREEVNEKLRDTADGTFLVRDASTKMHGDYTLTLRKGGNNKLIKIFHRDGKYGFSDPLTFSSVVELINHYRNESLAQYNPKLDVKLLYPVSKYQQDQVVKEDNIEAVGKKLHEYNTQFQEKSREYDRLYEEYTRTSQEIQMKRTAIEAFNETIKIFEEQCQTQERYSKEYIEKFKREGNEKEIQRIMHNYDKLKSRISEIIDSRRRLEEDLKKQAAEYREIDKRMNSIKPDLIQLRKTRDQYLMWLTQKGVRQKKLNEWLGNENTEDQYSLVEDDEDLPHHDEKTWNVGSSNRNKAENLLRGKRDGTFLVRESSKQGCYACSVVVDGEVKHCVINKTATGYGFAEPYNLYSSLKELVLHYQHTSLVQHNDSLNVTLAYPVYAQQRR
Description: (§4) Reactions are carried out using the following conditions for each PI3K isoform as in Table 5.
(§5) All reactions are carried out at room temperature. […] The reaction is started by the addition of 2 μL ATP/MgCl2. The kinase reaction buffer contains 50 mM HEPES, 50 mM NaCl 3 mM MgCl2, 0.01% BSA, 1% DMSO, and enzyme and substrate concentrations as indicated in the above table. The reaction is stopped by the addition of 10 μL ADP-Glo reagent. Plates are read in a Perkin Elmer Envision system using luminescence mode. 10 point dose response curves are generated for each test compound. Ki values for each compound are determined using the Morrison Equation.

[5] = target: PI3Kα (Homo sapiens, UniProt P42336); assay: PI3K binding assay (lipid kinase reaction, ADP-Glo), PI3K alpha; assay type: biochemical
Chain of PI3Kα (P42336 whole entry): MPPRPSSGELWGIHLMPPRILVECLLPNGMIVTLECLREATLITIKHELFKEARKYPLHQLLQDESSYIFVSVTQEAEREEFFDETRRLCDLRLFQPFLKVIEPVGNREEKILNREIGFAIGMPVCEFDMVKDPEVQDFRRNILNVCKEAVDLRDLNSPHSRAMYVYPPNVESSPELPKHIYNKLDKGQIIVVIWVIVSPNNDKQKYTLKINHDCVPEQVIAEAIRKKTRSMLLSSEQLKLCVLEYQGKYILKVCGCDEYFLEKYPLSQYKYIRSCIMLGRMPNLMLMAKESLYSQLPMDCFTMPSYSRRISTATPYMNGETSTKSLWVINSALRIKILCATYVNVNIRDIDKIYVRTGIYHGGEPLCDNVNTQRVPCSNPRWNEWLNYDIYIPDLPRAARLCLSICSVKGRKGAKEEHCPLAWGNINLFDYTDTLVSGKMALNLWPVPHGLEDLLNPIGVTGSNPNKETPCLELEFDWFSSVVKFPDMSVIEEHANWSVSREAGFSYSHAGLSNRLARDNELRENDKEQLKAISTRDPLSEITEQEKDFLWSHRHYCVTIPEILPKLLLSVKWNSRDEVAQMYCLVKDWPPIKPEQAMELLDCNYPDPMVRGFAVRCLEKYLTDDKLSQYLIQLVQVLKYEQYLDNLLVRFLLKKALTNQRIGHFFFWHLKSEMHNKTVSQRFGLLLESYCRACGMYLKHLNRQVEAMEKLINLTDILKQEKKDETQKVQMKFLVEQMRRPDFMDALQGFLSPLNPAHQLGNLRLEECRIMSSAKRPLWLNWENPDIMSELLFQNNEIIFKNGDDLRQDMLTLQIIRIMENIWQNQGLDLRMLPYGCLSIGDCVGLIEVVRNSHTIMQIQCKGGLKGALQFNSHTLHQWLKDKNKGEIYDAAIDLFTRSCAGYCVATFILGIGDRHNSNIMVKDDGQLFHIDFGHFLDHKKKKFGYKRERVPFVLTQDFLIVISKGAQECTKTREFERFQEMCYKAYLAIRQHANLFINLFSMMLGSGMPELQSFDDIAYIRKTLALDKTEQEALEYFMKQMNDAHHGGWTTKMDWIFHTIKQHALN
Chain of PI3Kα (P27986 whole entry partner): as the sequence (P27986 whole entry partner, canonical isoform) above
Description: as §4, §5

[6] = target: PI3Kγ (Homo sapiens, UniProt P48736); assay: PI3K binding assay (lipid kinase reaction, ADP-Glo), PI3K gamma; assay type: biochemical; details: Table 2A; first value of cell (ADP-Glo, Example 901)
Chain of PI3Kγ (P48736 whole entry): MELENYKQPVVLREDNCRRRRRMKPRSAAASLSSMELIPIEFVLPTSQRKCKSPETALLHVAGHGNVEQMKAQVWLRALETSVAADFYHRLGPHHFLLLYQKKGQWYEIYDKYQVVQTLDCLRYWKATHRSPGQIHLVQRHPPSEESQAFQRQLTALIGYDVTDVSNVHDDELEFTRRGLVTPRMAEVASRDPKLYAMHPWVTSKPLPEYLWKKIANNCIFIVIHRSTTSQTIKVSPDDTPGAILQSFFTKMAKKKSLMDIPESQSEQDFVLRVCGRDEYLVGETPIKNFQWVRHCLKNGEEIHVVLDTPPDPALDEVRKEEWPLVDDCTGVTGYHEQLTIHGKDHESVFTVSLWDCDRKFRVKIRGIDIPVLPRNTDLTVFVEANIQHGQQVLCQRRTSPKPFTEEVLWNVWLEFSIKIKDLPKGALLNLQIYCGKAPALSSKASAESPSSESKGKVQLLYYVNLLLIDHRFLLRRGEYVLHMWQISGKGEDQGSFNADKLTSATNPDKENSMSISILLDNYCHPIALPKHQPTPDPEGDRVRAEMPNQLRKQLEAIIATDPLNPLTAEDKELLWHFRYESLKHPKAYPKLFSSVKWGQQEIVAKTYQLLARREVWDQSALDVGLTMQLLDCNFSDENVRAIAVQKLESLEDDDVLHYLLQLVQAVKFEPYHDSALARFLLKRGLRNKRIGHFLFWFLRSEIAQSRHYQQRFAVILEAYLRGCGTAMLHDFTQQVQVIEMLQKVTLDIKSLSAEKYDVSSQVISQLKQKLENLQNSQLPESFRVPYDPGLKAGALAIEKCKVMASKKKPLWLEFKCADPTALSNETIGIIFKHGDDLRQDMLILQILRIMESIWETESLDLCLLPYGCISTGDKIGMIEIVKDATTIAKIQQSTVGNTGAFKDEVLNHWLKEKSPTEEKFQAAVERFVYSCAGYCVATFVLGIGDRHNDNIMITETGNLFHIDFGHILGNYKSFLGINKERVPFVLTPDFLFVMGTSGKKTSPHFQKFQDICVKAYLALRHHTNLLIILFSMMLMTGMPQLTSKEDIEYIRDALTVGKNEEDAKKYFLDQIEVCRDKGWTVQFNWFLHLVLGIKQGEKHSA
Description: as §4, §5

[7] = target: PI3Kβ (Homo sapiens, UniProt P42338); assay: PI3K binding assay (lipid kinase reaction, ADP-Glo), PI3K beta; assay type: biochemical; details: Table 2A; first value of cell (ADP-Glo, Example 901)
Chain of PI3Kβ (P42338 whole entry): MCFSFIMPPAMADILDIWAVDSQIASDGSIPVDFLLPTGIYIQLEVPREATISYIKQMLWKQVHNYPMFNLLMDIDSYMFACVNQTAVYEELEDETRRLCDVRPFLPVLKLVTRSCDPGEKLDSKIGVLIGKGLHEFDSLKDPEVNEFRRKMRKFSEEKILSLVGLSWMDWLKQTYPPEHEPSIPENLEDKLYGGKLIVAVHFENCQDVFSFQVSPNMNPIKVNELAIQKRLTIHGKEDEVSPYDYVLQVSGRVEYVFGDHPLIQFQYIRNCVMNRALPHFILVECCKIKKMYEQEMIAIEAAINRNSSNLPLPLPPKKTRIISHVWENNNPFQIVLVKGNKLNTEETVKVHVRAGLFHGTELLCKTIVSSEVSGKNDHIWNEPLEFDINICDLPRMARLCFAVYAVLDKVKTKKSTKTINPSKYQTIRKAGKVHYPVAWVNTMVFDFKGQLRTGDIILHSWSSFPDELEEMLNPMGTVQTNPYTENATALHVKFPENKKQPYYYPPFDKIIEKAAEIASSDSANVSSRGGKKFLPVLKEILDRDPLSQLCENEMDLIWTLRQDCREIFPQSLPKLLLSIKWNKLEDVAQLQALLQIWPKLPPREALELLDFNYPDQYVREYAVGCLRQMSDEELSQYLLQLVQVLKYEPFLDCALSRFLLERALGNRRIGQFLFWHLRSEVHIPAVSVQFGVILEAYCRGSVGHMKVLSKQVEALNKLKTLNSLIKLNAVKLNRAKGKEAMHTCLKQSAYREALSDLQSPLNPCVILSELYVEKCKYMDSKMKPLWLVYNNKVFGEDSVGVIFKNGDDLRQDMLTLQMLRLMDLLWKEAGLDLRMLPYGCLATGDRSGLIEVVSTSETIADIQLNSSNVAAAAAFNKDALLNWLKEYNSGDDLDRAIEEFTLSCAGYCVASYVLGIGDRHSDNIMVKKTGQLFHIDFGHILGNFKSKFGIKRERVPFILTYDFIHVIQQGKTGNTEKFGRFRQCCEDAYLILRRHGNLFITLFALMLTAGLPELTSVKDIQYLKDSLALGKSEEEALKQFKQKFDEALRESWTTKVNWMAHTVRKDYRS
Chain of PI3Kβ (P27986 whole entry partner): as the sequence (P27986 whole entry partner, canonical isoform) above
Description: as §4, §5

[8] = test system: KPL4 cells (PI3Kα mutant H1047R); assay: In vitro cell viability assay (Cell Titer-Glo), KPL4; details: KPL4, 96 h, read-out: KPL4 antiproliferative EC50 (μM)
[9] = read-out: P-PRAS40 SW48(parental) EC50 (μM)
[10] = SW48, Table 3B comparator compounds, 24 hours of compound treatment, read-out: P-PRAS40 SW48(H1047R) EC50
[11] = SW48, Table 3B comparator compounds, 24 hours of compound treatment, read-out: P-PRAS40 SW48(E545K) EC50
[12] = Table 2B comparator compounds, first value of cell (ADP-Glo)
[13] = Table 2B comparator compounds, first value of cell (ADP-Glo), read-out: PI3Kα Ki
[14] = read-out: P-PRAS40 SW48(parental) EC50 (nM)
[15] = SW48, Table 3A, 24 hours of compound treatment, geometric mean, read-out: P-PRAS40 SW48(H1047R) EC50
[16] = Table 3A, EC50 potency ratio, p value (Student t-Test) given
[17] = SW48, Table 3A, 24 hours of compound treatment, geometric mean, read-out: P-PRAS40 SW48(E545K) EC50
[18] = Table 2A, first value of cell (ADP-Glo, Example 901)
[19] = Table 2A, first value of cell (ADP-Glo, Example 901), read-out: PI3Kα Ki
[20] = Table 2A, selectivity ratio (fold)

EC50 [2, 10]	EC50 [3, 11]	Ki [4, 12]	EC50 [2, 15]	EC50 [3, 17]	Ki [4, 18]	Ki [6]	Ki [7]	Ki [5, 19]	Structure (SMILES)	EC50 [1, 9]	EC50 [1, 14]	Fold Selectivity for SW48(H1047R) vs. SW48(parental) [2, 16]	Fold Selectivity for SW48(E545K) vs. SW48(parental) [3, 16]	Selectivity for PI3Kα vs. PI3K-β [5, 20]	Selectivity for PI3Kα vs. PI3Kγ [5, 20]	Selectivity for PI3Kα vs. PI3Kδ [5, 20]	also measured
–	–	–	0.0322 µM	0.0328 µM	18.7 nM	72.8 nM	392 nM	0.803 nM	CC(C)[C@@H]1COC(=O)N1c1cn2c(n1)-c1ccc(O[C@@H](C)C(N)=O)cc1OCC2 [Compound 101, (S)-2-((2-((R)-4-isopropyl-2-oxooxazolidin-3-yl)-5,6-dihydrobenzo[f]imidazo[1,2-d][1,4]oxazepin-9-yl)oxy)propanamide]	–	0.0682 µM	2.1 (p < 0.001)	2.1 (p < 0.001)	488	91	23	–
–	–	–	0.0026 µM	0.0029 µM	1.97 nM	23.9 nM	60.8 nM	0.043 nM	NC(=O)[C@@H]1CCCN1c1ccc2c(c1)OCCn1cc(N3C(=O)OC[C@H]3CF)nc1-2 [Compound 108, (S)-1-(2-((S)-4-(Fluoromethyl)-2-oxooxazolidin-3-yl)-5,6-dihydrobenzo[f]imidazo[1,2-d][1,4]oxazepin-9-yl)pyrrolidine-2-carboxamide]	–	0.0062 µM	2.2 (p < 0.001)	2.1 (p < 0.001))	1421	557	46	–
–	–	0.354 nM	–	–	–	–	–	–	CC(C)n1ncnc1-c1cn2c(n1)-c1ccc(N3CCC[C@H]3C(N)=O)cc1OCC2 [Compound 375, reference compound]	0.0016 µM	–	–	–	–	–	–	Fold Selectivity for SW48(H1047R) vs. SW48(parental) [2]: 1.5 (p = 0.20); EC50 ([2]; SW48, 24 h, read-out: P-PRAS40 SW48(H1047R) EC50 (μM)): 0.001 µM; Fold Selectivity for SW48(E545K) vs. SW48(parental) [3]: 1.4 (p = 0.23); EC50 ([3]; SW48, 24 h, read-out: P-PRAS40 SW48(E545K) EC50 (μM)): 0.0011 µM; Ki [5]: 0.016 nM
–	–	7.72 nM	–	–	–	–	–	–	CC(C)n1ncnc1-c1cn2c(n1)-c1ccc(O[C@@H](C)C(N)=O)cc1OCC2 [Compound 436, reference compound]	–	–	–	–	–	–	–	EC50 [8]: 0.05 µM
0.0009 µM	0.0008 µM	0.422 nM	–	–	–	–	–	–	NC(=O)[C@@H]1CCCN1c1ccc2c(c1)OCCn1cc(-c3ncnn3CC(F)(F)F)nc1-2 [Compound 469, reference compound]	0.001 µM	–	–	–	–	–	–	Fold Selectivity for SW48(H1047R) vs. SW48(parental) ([2]; Table 3B, EC50 potency ratio): 1.6 (p = 0.11); Fold Selectivity for SW48(E545K) vs. SW48(parental) ([3]; Table 3B, EC50 potency ratio): 1.8 (p = 0.04); Ki [5, 13]: 0.025 nM; Selectivity for PI3Kα vs. PI3Kδ ([5]; Table 2B comparator compounds, selectivity ratio (fold)): 17
0.184 µM	0.169 µM	24.1 nM	–	–	–	–	–	–	C[C@H](Oc1ccc2c(c1)OCCn1cc(-c3ncnn3C)nc1-2)C(N)=O [Compound 540, reference compound]	0.381 µM	–	–	–	–	–	–	–
0.018 µM	0.0159 µM	11.3 nM	–	–	–	–	–	–	CCn1ncnc1-c1cn2c(n1)-c1ccc(O[C@@H](C)C(N)=O)cc1OCC2 [Compound 544, reference compound]	0.0477 µM	–	–	–	–	–	–	–

Second part, the molecule before the results:

Structure (SMILES)	EC50 [2, 10]	EC50 [3, 11]	Ki [4, 12]	EC50 [2, 15]	EC50 [3, 17]	Ki [4, 18]	Ki [6]	Ki [7]	Ki [5, 19]	EC50 [1, 9]	EC50 [1, 14]	Fold Selectivity for SW48(H1047R) vs. SW48(parental) [2, 16]	Fold Selectivity for SW48(E545K) vs. SW48(parental) [3, 16]	Selectivity for PI3Kα vs. PI3K-β [5, 20]	Selectivity for PI3Kα vs. PI3Kγ [5, 20]	Selectivity for PI3Kα vs. PI3Kδ [5, 20]	also measured
CC(C)(O)Cn1cc(-c2ccc3c(c2)OCCc2sc(N4C(=O)OCC4(C)C)nc2-3)cn1 [356 (U.S. Pat. No. 8,263,633), reference compound]	0.0795 µM	0.0768 µM	0.92 nM	–	–	–	–	–	–	0.31 µM	–	–	–	–	–	–	Fold Selectivity for SW48(H1047R) vs. SW48(parental) ([2]; Table 3B, EC50 potency ratio): 3.9 (p < 0.001); Fold Selectivity for SW48(E545K) vs. SW48(parental) ([3]; Table 3B, EC50 potency ratio): 4.0 (p < 0.001); Selectivity for PI3Kα vs. PI3Kδ [5]: 1; Ki [5, 13]: 0.967 nM
CC[C@@H]1COC(=O)N1c1cn2c(n1)-c1ccc(O[C@@H](C)C(N)=O)cc1OCC2 [Compound 104, (S)-2-((2-((R)-4-Ethyl-2-oxooxazolidin-3-yl)-5,6-dihydrobenzo[f]imidazo[1,2-d][1,4]oxazepin-9-yl)oxy)propanamide]	–	–	–	0.109 µM	0.115 µM	50 nM	287 nM	847 nM	2.69 nM	–	0.335 µM	2.6 (p = 0.003)	2.5 (p = 0.003)	–	–	–	Selectivity for PI3Kα vs. PI3K-β [5]: 315; Selectivity for PI3Kα vs. PI3Kγ [5]: 107; Selectivity for PI3Kα vs. PI3Kδ [5]: 19
NC(=O)[C@@H]1CCCN1c1ccc2c(c1)OCCn1cc(N3C(=O)OC[C@H]3C(F)F)nc1-2 [Compound 106, (S)-1-(2-((S)-4-(Difluoromethyl)-2-oxooxazolidin-3-yl)-5,6-dihydrobenzo[f]imidazo[1,2-d][1,4]oxazepin-9-yl)pyrrolidine-2-carboxamide]	–	–	–	0.0029 µM	0.0027 µM	1.82 nM	20.4 nM	53.8 nM	0.053 nM	–	0.0055 µM	1.9 (p < 0.001)	2.1 (p < 0.001)	1008	384	34	–
C[C@H](Oc1ccc2c(c1)OCCn1cc(N3C(=O)OC[C@H]3C(F)F)nc1-2)C(N)=O [Compound 107, (S)-2-((2-((S)-4-(Difluoromethyl)-2-oxooxazolidin-3-yl)-5,6-dihydrobenzo[f]imidazo[1,2-d][1,4]oxazepin-9-yl)oxy)propanamide]	–	–	–	0.0256 µM	0.0234 µM	44.2 nM	136 nM	341 nM	0.853 nM	–	0.0692 µM	2.7 (p < 0.001)	3.0 (p < 0.001)	400	159	52	–
C[C@H](Oc1ccc2c(c1)OCCn1cc(N3C(=O)OC[C@H]3CF)nc1-2)C(N)=O [Compound 109, (S)-2-((2-((S)-4-(Fluoromethyl)-2-oxooxazolidin-3-yl)-5,6-dihydrobenzo[f]imidazo[1,2-d][1,4]oxazepin-9-yl)oxy)propanamide]	–	–	–	0.028 µM	0.0332 µM	30.3 nM	126 nM	376 nM	0.993 nM	–	0.074 µM	2.6 (p < 0.001)	2.2 (p = 0.002)	–	–	–	Selectivity for PI3Kα vs. PI3K-β [5]: 379; Selectivity for PI3Kα vs. PI3Kγ [5]: 127; Selectivity for PI3Kα vs. PI3Kδ [5]: 31
C[C@H](Oc1ccc2c(c1)OCCn1cc(-c3ncnn3CC(F)(F)F)nc1-2)C(N)=O [Compound 486, reference compound]	0.0059 µM	0.0055 µM	2.5 nM	–	–	–	–	–	–	0.0062 µM	–	–	–	–	–	–	Fold Selectivity for SW48(H1047R) vs. SW48(parental) ([2]; Table 3B, EC50 potency ratio): 1.0 (p = 0.74); Fold Selectivity for SW48(E545K) vs. SW48(parental) ([3]; Table 3B, EC50 potency ratio): 1.1 (p = 0.44); Ki [5, 13]: 0.186 nM
